According to ChEMBL document CHEMBL1201862, “PubChem BioAssay data set” (2004):
Calls of active or inactive are those of the source. Cut-off read from the data, not from the text of the source, for most assays here: actives have a measured EC50 and inactives only a lower limit.

What was measured:
BJ [1] = assay: BJ-TERT-LT-ST fibroblast viability loss – cell-based, RAS-independent, luminescence, dose response (AID 1935); assay type: functional; conditions: Homo sapiens;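 note: BJ fibroblasts immortalized with TERT plus LT and ST oncogenes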
BJ [2] = assay: cells; assay type: functional, cell-based; conditions: Homo sapiens
[3] = target: T1, Mannose-6-phosphate isomerase (Homo sapiens, UniProt P34949); assay: phosphomannose isomerase inhibition – biochemical, fluorescence intensity, confirmation (AID 1535)
T1 sequence (P34949 whole entry): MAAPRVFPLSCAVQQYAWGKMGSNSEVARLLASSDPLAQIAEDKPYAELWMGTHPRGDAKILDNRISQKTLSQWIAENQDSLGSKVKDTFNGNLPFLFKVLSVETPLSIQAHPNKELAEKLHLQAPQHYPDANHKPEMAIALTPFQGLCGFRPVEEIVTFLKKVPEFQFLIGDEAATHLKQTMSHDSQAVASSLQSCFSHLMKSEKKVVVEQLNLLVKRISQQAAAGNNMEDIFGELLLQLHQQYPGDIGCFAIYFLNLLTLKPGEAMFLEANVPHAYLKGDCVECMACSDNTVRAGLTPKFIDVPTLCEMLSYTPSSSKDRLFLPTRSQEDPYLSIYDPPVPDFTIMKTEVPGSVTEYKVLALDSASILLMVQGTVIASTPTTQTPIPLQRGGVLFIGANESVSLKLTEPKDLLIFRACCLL

[4] = target: Lysine-specific demethylase 4C (Homo sapiens, UniProt Q9H3R0); assay: inhibition of JMJD2C H3K9me3 demethylation – biochemical, DELFIA europium, cherry-picked samples, dose response (AID 488835); assay type: functional
Chain of Lysine-specific demethylase 4C (Q9H3R0 whole entry): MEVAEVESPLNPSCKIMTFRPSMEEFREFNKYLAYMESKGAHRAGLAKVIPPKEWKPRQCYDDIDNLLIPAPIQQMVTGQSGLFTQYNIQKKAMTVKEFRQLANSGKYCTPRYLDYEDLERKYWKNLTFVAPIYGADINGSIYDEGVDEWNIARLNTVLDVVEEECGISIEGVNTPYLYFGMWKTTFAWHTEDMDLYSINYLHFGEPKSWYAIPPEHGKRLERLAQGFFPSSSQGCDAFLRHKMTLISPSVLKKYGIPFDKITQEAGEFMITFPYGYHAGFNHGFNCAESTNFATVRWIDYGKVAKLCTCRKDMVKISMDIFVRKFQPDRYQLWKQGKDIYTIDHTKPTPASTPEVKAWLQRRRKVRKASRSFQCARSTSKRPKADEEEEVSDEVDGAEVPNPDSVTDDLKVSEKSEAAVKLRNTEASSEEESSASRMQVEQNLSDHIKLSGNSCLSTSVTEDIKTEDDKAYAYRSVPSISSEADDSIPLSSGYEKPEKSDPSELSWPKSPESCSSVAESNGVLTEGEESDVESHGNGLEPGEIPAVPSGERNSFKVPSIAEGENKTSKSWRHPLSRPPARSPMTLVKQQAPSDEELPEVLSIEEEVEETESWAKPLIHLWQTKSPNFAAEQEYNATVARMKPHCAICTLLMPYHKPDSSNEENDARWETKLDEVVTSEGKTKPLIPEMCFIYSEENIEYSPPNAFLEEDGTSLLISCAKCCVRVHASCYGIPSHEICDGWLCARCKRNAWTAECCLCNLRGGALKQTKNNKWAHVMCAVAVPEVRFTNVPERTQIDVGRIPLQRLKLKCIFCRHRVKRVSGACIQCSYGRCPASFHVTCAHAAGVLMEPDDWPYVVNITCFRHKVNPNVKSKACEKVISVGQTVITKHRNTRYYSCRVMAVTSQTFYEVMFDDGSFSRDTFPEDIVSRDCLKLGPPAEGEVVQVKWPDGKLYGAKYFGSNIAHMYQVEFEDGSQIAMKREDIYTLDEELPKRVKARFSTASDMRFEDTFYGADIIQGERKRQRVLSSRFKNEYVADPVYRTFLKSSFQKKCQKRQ

[5] = DRD fibroblast viability loss – cell-based, non-viral oncogenic, luminescence, dose response (AID 1934); assay type: functional; conditions: Homo sapiens
BJ [6] = assay: BJ-TERT fibroblast viability loss – cell-based, RAS-independent, luminescence, dose response (AID 1933); assay type: functional; conditions: Homo sapiens
Phosphomannomutase 2 = Phosphomannomutase 2 (Homo sapiens, UniProt O15305); assay: Counter screen SAR assay for PMM2 inhibitors via a fluorescence intensity assay. [Related pubchem assays (depositor defined):AID1545, AID1574]
Chain of Phosphomannomutase 2 (O15305 whole entry): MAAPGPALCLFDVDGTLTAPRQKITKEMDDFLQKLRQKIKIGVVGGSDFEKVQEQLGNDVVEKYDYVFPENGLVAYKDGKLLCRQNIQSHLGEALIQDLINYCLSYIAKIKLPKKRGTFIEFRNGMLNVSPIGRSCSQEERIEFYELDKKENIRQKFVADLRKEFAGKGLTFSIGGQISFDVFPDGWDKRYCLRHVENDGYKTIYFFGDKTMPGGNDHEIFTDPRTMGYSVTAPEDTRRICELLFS

[7] = target: DNA dC->dU-editing enzyme APOBEC-3G (Homo sapiens, UniProt Q9HC16); assay: Dose Response confirmation of small molecule APOBEC3G DNA Deaminase Inhibitors via a fluorescence-based single-stranded DNA deaminase assay. [Related pubchem assays (depositor defined):AID493012, AID493028]; assay type: functional
Chain of DNA dC->dU-editing enzyme APOBEC-3G (Q9HC16 whole entry): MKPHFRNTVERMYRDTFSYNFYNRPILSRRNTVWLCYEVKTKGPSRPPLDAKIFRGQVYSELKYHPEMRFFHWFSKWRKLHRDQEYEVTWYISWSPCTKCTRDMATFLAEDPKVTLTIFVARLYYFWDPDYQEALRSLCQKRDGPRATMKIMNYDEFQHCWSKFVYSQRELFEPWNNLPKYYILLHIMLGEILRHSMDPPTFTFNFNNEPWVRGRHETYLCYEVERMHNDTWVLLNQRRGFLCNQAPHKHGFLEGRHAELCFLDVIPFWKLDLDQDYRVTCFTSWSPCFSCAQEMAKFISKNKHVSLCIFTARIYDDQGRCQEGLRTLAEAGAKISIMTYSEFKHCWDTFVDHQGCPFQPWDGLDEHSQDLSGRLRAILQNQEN

[8] = target: DNA dC->dU-editing enzyme APOBEC-3A (Homo sapiens, UniProt P31941); assay: A3A deaminase inhibition for selectivity – biochemical, dose response (AID 504722); assay type: functional
Chain of DNA dC->dU-editing enzyme APOBEC-3A (P31941 whole entry): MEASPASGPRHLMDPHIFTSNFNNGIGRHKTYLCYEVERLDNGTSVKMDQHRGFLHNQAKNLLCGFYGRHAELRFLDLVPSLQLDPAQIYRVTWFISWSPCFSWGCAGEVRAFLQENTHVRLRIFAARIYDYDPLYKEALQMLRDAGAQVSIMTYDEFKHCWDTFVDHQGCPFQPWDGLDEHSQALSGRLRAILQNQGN

[9] = target: T1, Mannose-6-phosphate isomerase; assay: MPI inhibition at elevated mannose 6-phosphate – biochemical, fluorescence intensity, high mannose 6-phosphate, primary screen (AID 1220)
Protein RecA = target: T2, Protein RecA (Mycobacterium tuberculosis, UniProt P9WHJ3); assay: Fluorescence Cell-Free Homogeneous Dose Retest to Identify Inhibitors of RecA-Intein Splicing Activity. [Related pubchem assays (depositor defined):AID2097, AID2223, AID489010, AID492950]; assay type: functional
T2 sequence (P9WHJ3 whole entry): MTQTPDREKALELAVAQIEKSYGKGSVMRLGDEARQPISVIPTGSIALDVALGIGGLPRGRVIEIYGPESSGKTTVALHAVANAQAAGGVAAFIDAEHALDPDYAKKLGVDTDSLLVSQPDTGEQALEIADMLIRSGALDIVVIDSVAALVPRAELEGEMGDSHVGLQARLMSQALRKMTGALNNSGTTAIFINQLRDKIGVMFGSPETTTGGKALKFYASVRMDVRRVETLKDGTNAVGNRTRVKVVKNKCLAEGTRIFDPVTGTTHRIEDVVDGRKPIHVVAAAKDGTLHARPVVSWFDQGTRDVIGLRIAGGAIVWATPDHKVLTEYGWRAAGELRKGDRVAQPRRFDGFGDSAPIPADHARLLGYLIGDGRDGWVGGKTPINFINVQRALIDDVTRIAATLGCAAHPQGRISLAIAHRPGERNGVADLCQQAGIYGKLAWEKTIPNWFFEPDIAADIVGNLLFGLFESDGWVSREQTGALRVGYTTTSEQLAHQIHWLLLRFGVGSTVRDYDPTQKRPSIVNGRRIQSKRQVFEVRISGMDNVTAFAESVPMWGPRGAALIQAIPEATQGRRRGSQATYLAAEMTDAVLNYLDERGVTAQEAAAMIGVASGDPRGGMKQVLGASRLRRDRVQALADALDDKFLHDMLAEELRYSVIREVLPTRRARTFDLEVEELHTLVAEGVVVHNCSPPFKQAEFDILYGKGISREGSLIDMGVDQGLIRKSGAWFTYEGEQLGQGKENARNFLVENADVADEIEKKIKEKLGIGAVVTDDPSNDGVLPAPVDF

[10] = target: Heat shock protein HSP 90-alpha (Homo sapiens, UniProt P07900); assay type: functional, organism-based
INS1 = assay: INS-1E survival protection against cytokine death – cell-based, luminescence, retest, dose response (AID 449756); assay type: functional; conditions: Rattus norvegicus, INS1;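 note: cell death triggered by IL-1 beta plus TNF-alpha plus IFN-gamma mixture; protective hits raise ATP signal compared with cytokine alone wells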
[11] = alpha-synuclein stem-loop luciferase translation blockers – H4 neuroglioma cells, luminescence, confirmation (AID 1988); assay type: functional, cell-based
[12] = target: T3, Replicative DNA helicase DnaB (Mycobacterium tuberculosis, UniProt P9WMR3); assay: DnaB intein splicing inhibitors, dose response, biochemical, cell-free fluorescence (AID 449749); assay type: functional
T3 sequence (P9WMR3 whole entry): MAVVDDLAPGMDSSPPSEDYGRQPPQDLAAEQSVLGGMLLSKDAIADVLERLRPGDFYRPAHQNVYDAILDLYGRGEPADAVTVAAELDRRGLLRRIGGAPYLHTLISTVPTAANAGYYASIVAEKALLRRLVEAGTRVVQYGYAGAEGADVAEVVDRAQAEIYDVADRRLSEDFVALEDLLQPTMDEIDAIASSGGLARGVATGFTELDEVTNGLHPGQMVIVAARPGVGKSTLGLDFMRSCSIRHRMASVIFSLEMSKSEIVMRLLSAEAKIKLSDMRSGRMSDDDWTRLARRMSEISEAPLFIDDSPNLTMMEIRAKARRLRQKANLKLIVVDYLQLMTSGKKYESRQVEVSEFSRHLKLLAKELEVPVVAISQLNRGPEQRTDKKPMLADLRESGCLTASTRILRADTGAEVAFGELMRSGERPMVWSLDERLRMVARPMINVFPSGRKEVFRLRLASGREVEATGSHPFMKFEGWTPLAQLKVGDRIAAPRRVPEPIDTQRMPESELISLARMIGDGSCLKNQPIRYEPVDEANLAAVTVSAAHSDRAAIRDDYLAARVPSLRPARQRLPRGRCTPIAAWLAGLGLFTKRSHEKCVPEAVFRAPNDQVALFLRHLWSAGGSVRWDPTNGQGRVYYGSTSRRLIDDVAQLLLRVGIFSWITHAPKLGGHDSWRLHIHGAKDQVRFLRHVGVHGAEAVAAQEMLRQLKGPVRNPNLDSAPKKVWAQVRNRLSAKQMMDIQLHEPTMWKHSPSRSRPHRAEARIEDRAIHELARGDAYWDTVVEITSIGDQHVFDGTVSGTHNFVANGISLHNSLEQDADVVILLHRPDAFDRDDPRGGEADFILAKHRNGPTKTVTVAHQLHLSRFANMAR

Streptokinase A = target: T4, Streptokinase A (Streptococcus pyogenes serotype M1, UniProt P10520); assay: viability-normalized secreted streptokinase activity reduction – plasminogen activation absorbance, OD405, dose response (AID 1914); assay type: functional, Streptococcus pyogenes M1 GAS;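 note: secreted streptokinase activity via plasminogen activation per viability signal from cell pellet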
T4 sequence (P10520 whole entry): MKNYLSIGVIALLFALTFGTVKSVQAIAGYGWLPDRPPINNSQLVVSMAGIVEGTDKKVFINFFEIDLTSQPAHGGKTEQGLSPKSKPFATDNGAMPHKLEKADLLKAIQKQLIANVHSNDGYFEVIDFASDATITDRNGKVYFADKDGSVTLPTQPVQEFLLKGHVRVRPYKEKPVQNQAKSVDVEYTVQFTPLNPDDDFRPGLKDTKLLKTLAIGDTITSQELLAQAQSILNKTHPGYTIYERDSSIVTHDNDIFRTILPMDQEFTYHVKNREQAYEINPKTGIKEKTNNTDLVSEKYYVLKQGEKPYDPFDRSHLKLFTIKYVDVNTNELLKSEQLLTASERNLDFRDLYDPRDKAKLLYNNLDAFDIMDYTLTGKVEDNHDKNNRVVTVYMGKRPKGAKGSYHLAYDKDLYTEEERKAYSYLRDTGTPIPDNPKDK

Exodeoxyribonuclease V = Exodeoxyribonuclease V (Escherichia coli (strain K12), UniProt P04993+P07648+P08394); assay: RecBCD inhibition via phage-restricted bacterial growth – absorbance, V66 E. coli, mutant T4 phage, counter-screen for AddAB inhibitor project, dose response (AID 492957); assay type: functional, cell-based, Escherichia coli str. K-12 substr. MG1655
Chain of Exodeoxyribonuclease V (P04993 whole entry): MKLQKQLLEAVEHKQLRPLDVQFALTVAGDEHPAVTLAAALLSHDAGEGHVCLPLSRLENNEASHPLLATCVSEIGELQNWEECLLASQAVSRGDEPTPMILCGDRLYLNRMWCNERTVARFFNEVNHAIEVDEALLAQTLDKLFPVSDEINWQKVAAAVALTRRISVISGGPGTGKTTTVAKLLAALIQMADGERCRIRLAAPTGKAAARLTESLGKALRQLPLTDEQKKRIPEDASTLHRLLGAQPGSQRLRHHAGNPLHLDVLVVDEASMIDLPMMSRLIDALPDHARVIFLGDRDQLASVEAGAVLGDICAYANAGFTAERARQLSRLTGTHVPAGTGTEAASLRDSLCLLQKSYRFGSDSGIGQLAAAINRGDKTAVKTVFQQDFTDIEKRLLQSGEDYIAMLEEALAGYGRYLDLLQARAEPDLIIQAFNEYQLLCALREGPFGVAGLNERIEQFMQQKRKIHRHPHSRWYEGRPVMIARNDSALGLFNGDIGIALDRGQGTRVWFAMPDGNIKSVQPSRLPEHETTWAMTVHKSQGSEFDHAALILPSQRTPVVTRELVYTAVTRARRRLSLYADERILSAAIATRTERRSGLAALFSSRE
Chain of Exodeoxyribonuclease V (P07648 whole entry): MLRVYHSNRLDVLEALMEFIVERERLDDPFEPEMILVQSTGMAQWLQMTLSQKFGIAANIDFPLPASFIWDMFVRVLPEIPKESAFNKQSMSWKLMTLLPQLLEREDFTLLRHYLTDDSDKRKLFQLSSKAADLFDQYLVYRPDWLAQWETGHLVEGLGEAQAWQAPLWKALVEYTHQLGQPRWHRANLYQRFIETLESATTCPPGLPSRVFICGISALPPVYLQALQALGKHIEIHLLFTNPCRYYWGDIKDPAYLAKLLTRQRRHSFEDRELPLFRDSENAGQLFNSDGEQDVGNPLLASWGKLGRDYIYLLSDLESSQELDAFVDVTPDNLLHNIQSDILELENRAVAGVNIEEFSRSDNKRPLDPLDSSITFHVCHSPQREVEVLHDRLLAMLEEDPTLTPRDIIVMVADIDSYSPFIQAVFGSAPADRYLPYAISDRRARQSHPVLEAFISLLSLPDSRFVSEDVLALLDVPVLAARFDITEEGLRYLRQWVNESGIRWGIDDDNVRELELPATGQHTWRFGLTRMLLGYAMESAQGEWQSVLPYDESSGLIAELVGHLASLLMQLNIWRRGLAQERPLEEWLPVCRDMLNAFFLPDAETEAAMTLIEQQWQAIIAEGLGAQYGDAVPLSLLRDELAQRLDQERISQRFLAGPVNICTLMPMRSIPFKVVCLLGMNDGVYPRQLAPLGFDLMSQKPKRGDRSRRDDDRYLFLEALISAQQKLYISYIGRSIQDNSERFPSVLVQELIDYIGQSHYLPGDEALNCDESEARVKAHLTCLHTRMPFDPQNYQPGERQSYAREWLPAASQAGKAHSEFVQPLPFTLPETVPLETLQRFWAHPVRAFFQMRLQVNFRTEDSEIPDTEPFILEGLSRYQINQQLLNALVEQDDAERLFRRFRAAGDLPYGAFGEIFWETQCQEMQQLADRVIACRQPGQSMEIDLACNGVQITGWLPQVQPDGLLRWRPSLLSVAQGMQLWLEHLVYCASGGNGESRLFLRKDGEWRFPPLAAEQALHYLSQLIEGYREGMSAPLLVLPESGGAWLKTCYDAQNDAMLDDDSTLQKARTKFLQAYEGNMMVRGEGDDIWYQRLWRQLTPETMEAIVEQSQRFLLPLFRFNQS
Chain of Exodeoxyribonuclease V (P08394 whole entry): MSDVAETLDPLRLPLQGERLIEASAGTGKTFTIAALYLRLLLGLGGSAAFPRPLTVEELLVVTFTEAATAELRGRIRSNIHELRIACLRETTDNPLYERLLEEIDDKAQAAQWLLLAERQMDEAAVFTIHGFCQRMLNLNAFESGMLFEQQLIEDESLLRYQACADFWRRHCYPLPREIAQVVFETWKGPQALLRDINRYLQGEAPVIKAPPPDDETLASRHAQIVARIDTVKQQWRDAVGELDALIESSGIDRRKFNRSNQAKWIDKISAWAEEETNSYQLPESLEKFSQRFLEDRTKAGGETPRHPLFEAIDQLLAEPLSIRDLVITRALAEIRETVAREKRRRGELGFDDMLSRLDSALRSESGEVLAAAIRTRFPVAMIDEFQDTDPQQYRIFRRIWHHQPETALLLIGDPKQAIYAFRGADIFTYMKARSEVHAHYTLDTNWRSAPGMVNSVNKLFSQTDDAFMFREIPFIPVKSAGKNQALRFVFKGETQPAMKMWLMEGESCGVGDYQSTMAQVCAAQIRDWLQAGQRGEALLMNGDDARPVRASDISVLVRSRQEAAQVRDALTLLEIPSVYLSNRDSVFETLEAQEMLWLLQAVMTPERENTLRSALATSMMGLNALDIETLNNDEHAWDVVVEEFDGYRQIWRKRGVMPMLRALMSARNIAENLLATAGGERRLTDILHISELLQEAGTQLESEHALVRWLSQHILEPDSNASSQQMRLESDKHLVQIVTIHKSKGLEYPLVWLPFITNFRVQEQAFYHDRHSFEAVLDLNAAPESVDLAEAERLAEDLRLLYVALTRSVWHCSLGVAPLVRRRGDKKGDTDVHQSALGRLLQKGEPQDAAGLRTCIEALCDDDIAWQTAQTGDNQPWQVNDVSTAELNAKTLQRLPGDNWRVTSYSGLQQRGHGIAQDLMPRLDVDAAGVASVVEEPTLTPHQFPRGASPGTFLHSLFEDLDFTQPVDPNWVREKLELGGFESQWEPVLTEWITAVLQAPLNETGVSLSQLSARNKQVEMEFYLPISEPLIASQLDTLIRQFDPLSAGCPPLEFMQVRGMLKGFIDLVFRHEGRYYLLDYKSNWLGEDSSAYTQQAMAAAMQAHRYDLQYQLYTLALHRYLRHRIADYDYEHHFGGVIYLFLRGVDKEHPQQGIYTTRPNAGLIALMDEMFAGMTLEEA

[13] = system: Streptococcus sp. 'group A'; assay: Streptococcus pyogenes SK(-)GAS viability under kanamycin – luminescence, BacTiterGlo, confirmation, counter-screen for streptokinase expression inhibitor project, dose response (AID 1900); assay type: functional, organism-based
[14] = Counterscreen for AddAB inhibitors: absorbance-based bacterial cell-based high throughput dose response assay for inhibitors of bacterial viability. [Related pubchem assays (depositor defined):AID435030, AID449728, AID449731, AID488942, AID488955, AID488956]; assay type: functional
cells [15] = assay type: functional, cell-based
[16] = luciferase reporter signal suppression in cells – H4 neuroglioma cells, luminescence, dose response (AID 1990); assay type: functional, cell-based
cells [17] = assay type: functional, cell-based; remark: listed apart in the source
[18] = Luminescence Cell-Based Dose Response HTS to Identify Inhibitors of 5'UTR Stem-Loop Driven Prion Protein mRNA Translation in H4 Neuroglioblastoma Cells. [Related pubchem assays: 1827 (Project Summary), 1813 (Primary HTS)]; assay type: functional
BJ [19] = assay: growth inhibition of engineered Ras-driven BJ cells – cell-based, alamar blue fluorescence, cherrypicked samples, dose response (AID 2631); assay type: functional; conditions: Homo sapiens;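 note: confirmatory dose-response assay in RAS-dependent BJ fibroblasts engineered with TERT, LT and ST, with cytotoxicity read by fluorescence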
Streptococcus = assay: GAS UMAA2166 growth inhibition – luminescence, BacTiterGlo, counter-screen for streptokinase expression inhibitor project, dose response (AID 1915); assay type: functional, organism-based;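 note: potency for reduction of bacterial viability or growth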
Nonstructural protein 1 = Nonstructural protein 1 (Influenza A virus, UniProt Q194T2); assay type: functional, Influenza A virus (A/California/07/2009(H1N1))
Chain of Nonstructural protein 1 (Q194T2 whole entry): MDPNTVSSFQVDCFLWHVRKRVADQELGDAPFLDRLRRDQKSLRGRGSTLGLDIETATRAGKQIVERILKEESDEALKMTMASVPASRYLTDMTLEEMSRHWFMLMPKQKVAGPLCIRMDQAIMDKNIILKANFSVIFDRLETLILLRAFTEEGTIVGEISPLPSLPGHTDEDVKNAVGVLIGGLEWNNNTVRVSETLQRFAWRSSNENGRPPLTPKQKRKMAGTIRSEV

N#Cc1ccc(/N=c2\ssnc2Cl)cc1
inactive: IC50 (Phosphomannomutase 2) > 100 µM | IC50 [8] > 100 µM
active: IC50 [3] 4.14 µM | AC50 [4] 5.67 µM | EC50 [5] 14.3 µM | IC50 [7] 7.33 µM
inconclusive: EC50 (BJ [1]) > 150 µM | EC50 (BJ [2]) > 150 µM | EC50 (BJ [6]) 6.16 µM
6.34 µM (not active): IC50 [9]

c1ccc(-c2nnc(-c3ccccn3)nc2NC2CCCCC2)cc1
active: EC50 (Protein RecA) 16.9 µM | EC50 (BJ [2]) 4.7 µM | AC50 [10] 3.99 µM | AC50 (INS1) 3.94 µM | EC50 [5] 4.27 µM | AC50 [12] 9.45 µM | EC50 (BJ [6]) 3.21 µM | EC50 [13] 4.44 µM | EC50 (cells [15]) 32.6 µM | EC50 [18] 18.8 µM | EC50 (Streptococcus) 4.21 µM | IC50 (Nonstructural protein 1) 1.21 µM
> 50 µM (not active): EC50 (Streptokinase A)
> 350 µM (not active): EC50 (cells [17])
inactive: IC50 (Exodeoxyribonuclease V) > 39.5 µM | IC50 [14] > 39.5 µM
inconclusive: EC50 (BJ [1]) 3.31 µM | EC50 [11] 1.66 µM | EC50 [16] 513 nM | EC50 (BJ [19]) 585 nM
